{
  "source": "patent US20080194655A1",
  "about": "“ZERO ORDER CONTROLLED RELEASE COMPOSITIONS OF TIZANIDINE” (priority 2007, published 2008)",
  "origin": "cited, not measured here",
  "system": "cognitive function (attention)",
  "conditions": "doses of 0.5-0.7 g/kg alcohol",
  "data": [
    {"smiles": "CCO", "note": "[alcohol]", "values": [
      {"measurement": "peak impairment (decrement) in Power of Attention compared to baseline", "result": "about 150 msec"}
    ]}
  ]
}
